Source: patent US7897602B2, “Indolinone compounds as kinase inhibitors” (Development Center for Biotechnology, priority 2009, dated 2011)

Key:
Format in all cases: biochemical
c-Met kinase = target: T1, c-Met kinase (Homo sapiens, UniProt P08581); experiment: c-Met kinase assay (33P incorporation into Poly(Glu-Tyr)); details: 500 nM test compound
T1 construct: recombinant N-terminal 6×His-tagged c-Met kinase domain construct expressed from baculovirus; 6xHis (N); made in house
Experimental: Inhibition of c-Met kinase activity by compounds disclosed herein was quantified by measuring the amount of [^33P] incorporated into the substrate in the presence of a test compound. Briefly, a reaction mixture of 25 μL final volume containing 5 ng of c-Met kinase (obtained by purifying recombinant N-terminal 6×His-tagged c-Met kinase domain construct expressed from baculovirus), 1 μg of the substrate (Poly (Glu-Tyr, 4:1, Sigma)), kinase reaction buffer (20 mM MOPS pH 7.0, 1 mM EDTA, 5% glycerol, 0.01% Brij-35, 0.1% β-mercaptoethanol, 1 mg/mL BSA, 100 μM ATP, 0.1 μCi per well [^33P]-γ-ATP (2,500-3,000 Ci/mmol)), and a test compound (500 nM, diluted with 4% DMSO) or DMSO (as the control) was incubated at 30° C. for 30 minutes. The reaction was stopped by adding 5 μL of 3% phosphoric acid solution. The resultant reaction solution was then harvested onto a filter plate (UniFilter-96 GF/B, PerkinElmer), washed 20 times for 5 min with d.d. H2O, and followed by the addition of 30 μL of MicroScint™-20 Cocktail (PerkinElmer). The plate was then sealed and counted using a TopCount scintillation detector (PerkinElmer). The percentage of inhibition rate of the test compound was calculated by dividing the retained radioactivity of the test sample with the retained radioactivity of the control sample and shown in Table 3.

Aurora B kinase = target: T2, Aurora B kinase (Homo sapiens, UniProt Q96GD4); experiment: Aurora B kinase assay ([γ-33P]ATP, CHOCKtide substrate); details: for inhibition at 1 µM: 1.0 μM test compound
T2 construct: purchased Cell signaling
T2 sequence (Q96GD4 whole entry): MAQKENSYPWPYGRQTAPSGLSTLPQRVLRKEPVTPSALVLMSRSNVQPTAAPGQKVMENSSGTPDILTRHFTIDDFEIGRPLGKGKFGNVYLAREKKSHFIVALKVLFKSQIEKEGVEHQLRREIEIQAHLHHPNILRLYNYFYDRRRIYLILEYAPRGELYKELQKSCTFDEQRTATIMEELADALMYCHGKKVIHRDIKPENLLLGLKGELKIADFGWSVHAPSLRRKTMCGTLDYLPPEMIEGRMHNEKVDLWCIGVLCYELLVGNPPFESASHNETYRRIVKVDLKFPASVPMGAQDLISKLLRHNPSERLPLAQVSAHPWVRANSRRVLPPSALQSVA
Experimental: (§1) Inhibition of Aurora Kinase by the compounds disclosed herein was determined by incubating Aurora kinase, substrate, and a test compound together for a period of time followed by quantifying the resultant phosphorylated product. Specifically, in a well of a 96-well round bottom plate, 25 μL of a reaction mixture containing (1) a test compound disclosed herein (diluted from 9 μM to the desired final concentration), [γ-33P]ATP/ATP mix (10 μM), CHOCKtide (1 μg, Genesis Biotech Inc.), and Aurora-A (1 ng, purchased from Upstate); or (2) a test compound disclosed herein (diluted from 9 μM to the desired final concentration), [γ-33P]ATP/ATP mix (40 μM), CHOCKtide (1 μg, Genesis Biotech Inc.), and Aurora-B (2.5 ng, purchased from Cell signaling); was prepared and incubated at 33° C. for 30 minutes. The reaction was then stopped by adding 5 μL of 3% phosphoric acid. The resultant solution (30 μL) was later harvested by a UniFilter Plate GF/B (PerkinElmer) followed by adding 30 μL of the scintillation cocktail (MicroScint 20, PerkinElmer) to the well. The radioactivity retained on the filter membrane was measured by a luminescence counter (PerkinElmer). IC50 value is defined as the concentration of the test compound which achieves a half-maximal inhibition of the kinase activity.

Aurora A kinase = target: T3, Aurora A kinase (Homo sapiens, UniProt O14965); experiment: Aurora A kinase assay ([γ-33P]ATP, CHOCKtide substrate); details: for inhibition at 1 µM: 1.0 μM test compound
T3 construct: purchased Upstate
T3 sequence (O14965 1-403): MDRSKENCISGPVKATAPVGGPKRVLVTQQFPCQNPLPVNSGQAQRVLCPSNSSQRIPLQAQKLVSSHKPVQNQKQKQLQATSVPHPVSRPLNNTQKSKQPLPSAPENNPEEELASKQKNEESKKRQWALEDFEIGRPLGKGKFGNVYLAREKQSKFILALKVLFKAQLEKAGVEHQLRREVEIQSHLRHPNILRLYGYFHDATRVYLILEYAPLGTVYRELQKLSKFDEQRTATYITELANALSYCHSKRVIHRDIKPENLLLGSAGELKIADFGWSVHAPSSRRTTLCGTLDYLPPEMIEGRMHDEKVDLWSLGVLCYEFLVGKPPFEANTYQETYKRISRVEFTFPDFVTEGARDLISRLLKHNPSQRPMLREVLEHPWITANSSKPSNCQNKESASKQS
Experimental: as §1

T1 sequence (P08581 1078-1345 limits assumed): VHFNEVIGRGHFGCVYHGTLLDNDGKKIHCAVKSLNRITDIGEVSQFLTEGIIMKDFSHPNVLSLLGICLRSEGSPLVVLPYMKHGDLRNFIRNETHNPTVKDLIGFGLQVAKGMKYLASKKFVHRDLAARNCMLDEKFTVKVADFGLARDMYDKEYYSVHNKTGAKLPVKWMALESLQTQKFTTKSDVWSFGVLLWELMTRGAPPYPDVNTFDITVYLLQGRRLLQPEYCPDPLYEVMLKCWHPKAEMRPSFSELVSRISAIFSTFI

Row | inhibition at 0.5 µM (c-Met kinase) | IC50 (Aurora B kinase) | inhibition at 1 µM (Aurora B kinase) | IC50 (Aurora A kinase) | inhibition at 1 µM (Aurora A kinase) | SMILES
1 | 15.2% | 870 nM | 57.3% | 60.6 nM | 93.1% | CC(=O)c1c(C)[nH]c(/C=C2\C(=O)Nc3ccc(NS(=O)(=O)c4ccccc4)cc32)c1CCC(=O)O [DCB-70200, (Z)-3-(4-acetyl-5-methyl-2-((2-oxo-5-(phenylsulfonamido)indolin-3-ylidene)methyl)-1H-pyrrol-3-yl)propanoic acid]
2 | 18.8% |  | 36.6% |  | 48.2% | CCOC(=O)CCc1c(/C=C2\C(=O)Nc3ccc(NS(=O)(=O)c4ccccc4)cc32)[nH]c(C)c1C(C)=O [DCB-70201, (Z)-ethyl 3-(4-acetyl-5-methyl-2-((2-oxo-5-(phenylsulfonamido)indolin-3-ylidene)methyl)-1H-pyrrol-3-yl)propanoate]
3 | 77.4% |  | 21.1% |  | 37.4% | CC(=O)c1c(C)[nH]c(/C=C2\C(=O)Nc3ccc(S(=O)(=O)N4CCc5ccccc54)cc32)c1CCC(=O)N1CCN(C)CC1 [DCB-70206, (Z)-3-((4-acetyl-5-methyl-3-(3-(4-methylpiperazin-1-yl)-3-oxopropyl)-1H-pyrrol-2-yl)methylene)-5-(indolin-1-ylsulfonyl)indolin-2-one]
4 | 75.3% |  | 45.5% | 100 nM | 74.6% | CCOC(=O)CCc1c(/C=C2\C(=O)Nc3ccc(S(=O)(=O)N4CCc5ccccc54)cc32)[nH]c2c1C(=O)CCC2 [DCB-70210, (Z)-ethyl 3-(2-((5-(indolin-1-ylsulfonyl)-2-oxoindolin-3-ylidene)methyl)-4-oxo-4,5,6,7-tetrahydro-1H-indol-3-yl)propanoate]
5 | 95.2% |  | 6.3% |  | 3.5% | CCN(CC)CCNC(=O)CCc1c(/C=C2\C(=O)Nc3ccc(S(=O)(=O)Cc4c(Cl)cccc4Cl)cc32)[nH]c(C)c1C(C)=O [DCB-70212, (Z)-3-(4-acetyl-2-((5-(2,6-dichlorobenzylsulfonyl)-2-oxoindolin-3-ylidene)methyl)-5-methyl-1H-pyrrol-3-yl)-N-(2-(diethylamino)ethyl)propanamide]
6 | 15.5% |  | 16.4% |  | 1% | CCN(CC)CCNC(=O)CCc1c(/C=C2\C(=O)Nc3ccc(F)cc32)[nH]c(C)c1C(C)=O [DCB-70213, (Z)-3-(4-acetyl-2-((5-fluoro-2-oxoindolin-3-ylidene)methyl)-5-methyl-1H-pyrrol-3-yl)-N-(2-(diethylamino)ethyl)propanamide]
7 | 56.3% |  | 14.8% |  | 15.4% | CCN(CC)CCNC(=O)CCc1c(/C=C2\C(=O)Nc3ccc(S(=O)(=O)N4CCc5ccccc54)cc32)[nH]c(C)c1C(C)=O [DCB-70214, (Z)-3-(4-acetyl-2-((5-(indolin-1-ylsulfonyl)-2-oxoindolin-3-ylidene)methyl)-5-methyl-1H-pyrrol-3-yl)-N-(2-(diethylamino)ethyl)propanamide]

The remaining lines, values behind:

Row | SMILES | inhibition at 0.5 µM (c-Met kinase) | IC50 (Aurora B kinase) | inhibition at 1 µM (Aurora B kinase) | IC50 (Aurora A kinase) | inhibition at 1 µM (Aurora A kinase)
8 | COc1cccc(S(=O)(=O)Nc2ccc3c(c2)/C(=C/c2[nH]c4c(c2CCC(=O)O)C(=O)CCC4)C(=O)N3)c1 [DCB-70196, (Z)-3-(2-((5-(3-methoxyphenylsulfonamido)-2-oxoindolin-3-ylidene)methyl)-4-oxo-4,5,6,7-tetrahydro-1H-indol-3-yl)propanoic acid] | 13.8% | 673 nM | 55.8% | 61.4 nM | 91.8%
9 | CCOC(=O)CCc1c(/C=C2\C(=O)Nc3ccc(NS(=O)(=O)Cc4ccccc4)cc32)[nH]c2c1C(=O)CCC2 [DCB-70197, (Z)-ethyl 3-(4-oxo-2-((2-oxo-5-(phenylmethylsulfonamido)indolin-3-ylidene)methyl)-4,5,6,7-tetrahydro-1H-indol-3-yl)propanoate] | 21.1% |  | 39.9% |  | 48.7%
10 | O=C(O)CCc1c(/C=C2\C(=O)Nc3ccc(NS(=O)(=O)Cc4ccccc4)cc32)[nH]c2c1C(=O)CCC2 [DCB-70198, (Z)-3-(4-oxo-2-((2-oxo-5-(phenylmethylsulfonamido)indolin-3-ylidene)methyl)-4,5,6,7-tetrahydro-1H-indol-3-yl)propanoic acid] | 20.2% | 402 nM | 69.8% | 62.8 nM | 96.1%
11 | CC(=O)c1c(C)[nH]c(/C=C2\C(=O)Nc3ccc(S(=O)(=O)Cc4c(Cl)cccc4Cl)cc32)c1CCC(=O)O [DCB-70202, (Z)-3-(4-acetyl-2-((5-(2,6-dichlorobenzylsulfonyl)-2-oxoindolin-3-ylidene)methyl)-5-methyl-1H-pyrrol-3-yl)propanoic acid] | 85.2% |  | 7.3% |  | 40.2%
12 | CC(=O)c1c(C)[nH]c(/C=C2\C(=O)Nc3ccc(S(=O)(=O)Cc4c(Cl)cccc4Cl)cc32)c1CCC(=O)N1CCN(C)CC1 [DCB-70205, (Z)-3-((4-acetyl-5-methyl-3-(3-(4-methylpiperazin-1-yl)-3-oxopropyl)-1H-pyrrol-2-yl)methylene)-5-(2,6-dichlorobenzylsulfonyl)indolin-2-one] | 97% |  | 2.4% |  | 11.3%
13 | CC(=O)c1c(C)[nH]c(/C=C2\C(=O)Nc3ccc(F)cc32)c1CCC(=O)N1CCN(C)CC1 [DCB-70207, (Z)-3-((4-acetyl-5-methyl-3-(3-(4-methylpiperazin-1-yl)-3-oxopropyl)-1H-pyrrol-2-yl)methylene)-5-fluoroindolin-2-one] | 21.1% |  | 6.8% |  | 10.3%
14 | CCOC(=O)CCc1c(/C=C2\C(=O)Nc3ccc(S(=O)(=O)Cc4c(Cl)cccc4Cl)cc32)[nH]c2c1C(=O)CCC2 [DCB-70209, (Z)-ethyl 3-(2-((5-(2,6-dichlorobenzylsulfonyl)-2-oxoindolin-3-ylidene)methyl)-4-oxo-4,5,6,7-tetrahydro-1H-indol-3-yl)propanoate] | 92.1% |  | 16.3% |  | 22.7%
15 | CN1CCN(C(=O)CCc2c(/C=C3\C(=O)Nc4ccc(NS(=O)(=O)c5ccccc5)cc43)[nH]c3c2C(=O)CCC3)CC1 [DCB-70218, (Z)-N-(3-((3-(3-(4-methylpiperazin-1-yl)-3-oxopropyl)-4-oxo-4,5,6,7-tetrahydro-1H-indol-2-yl)methylene)-2-oxoindolin-5-yl)benzenesulfonamide] | 9.2% |  | 54.2% | 823 nM | 62%
16 | CC(=O)c1c(C)[nH]c(/C=C2\C(=O)Nc3ccc(NS(=O)(=O)c4ccccc4)cc32)c1CCC(=O)N1CCN(C)CC1 [DCB-70219, (Z)-N-(3-((4-acetyl-5-methyl-3-(3-(4-methylpiperazin-1-yl)-3-oxopropyl)-1H-pyrrol-2-yl)methylene)-2-oxoindolin-5-yl)benzenesulfonamide] | 17.7% |  | 14.8% |  | 25.7%
17 | CCN(CC)CCCc1c(/C=C2\C(=O)Nc3ccc(S(=O)(=O)Cc4c(Cl)cccc4Cl)cc32)[nH]c2c1C(=O)CCC2 [DCB-70222, (Z)-5-(2,6-dichlorobenzylsulfonyl)-3-((3-(3-(diethylamino)propyl)-4-oxo-4,5,6,7-tetrahydro-1H-indol-2-yl)methylene)indolin-2-one] | 95.6% |  | 83.2% |  | 95.7%
